Measurements taken from US9535067B2, “DOT1L probes” (DANA-FARBER CANCER INSTITUTE, INC., priority 2013, dated 2017).

Biological target: DOT1L (Homo sapiens, UniProt Q8TEK3)
Test: Differential Scanning Fluorimetry (DFS) Assay
Type: binding
From the text: DFS enables assays suitable for high throughput screening assays for the effect of a small molecule on protein stability. DFS assays measures the thermal stability of a target protein and a subsequent increase in protein melting temperature upon binding of a ligand to the protein. Generally, specific binding will stabilize the protein. An exemplary protocol for performing a DFS for detecting the binding of (with or without a test compound) a fluorescence labeled probe to DOT1L, or an analog thereof, is as follows.
First, a protein solution comprising DOT1L or an active fragment thereof (e.g., DOT1L SET domain) is prepared in a suitable buffer at a desired concentration (e.g., 0.1 μM. 0.5 μM, 1.0 μM, 2.5 μM, 5.0 μM, 10 μM, 20 μM, or 100 μM). Then, a probe solution comprising a compound of formula (I), (le), (If) or (Ig) is prepared. A volume of the protein solution is combined with a volume of the probe solution in the presence or absence of a test compound. Binding of the probe to DOT1L or an active fragment thereof is then measured using a fluorometer.

DOT1L, sequence (Q8TEK3 whole entry, species assumed): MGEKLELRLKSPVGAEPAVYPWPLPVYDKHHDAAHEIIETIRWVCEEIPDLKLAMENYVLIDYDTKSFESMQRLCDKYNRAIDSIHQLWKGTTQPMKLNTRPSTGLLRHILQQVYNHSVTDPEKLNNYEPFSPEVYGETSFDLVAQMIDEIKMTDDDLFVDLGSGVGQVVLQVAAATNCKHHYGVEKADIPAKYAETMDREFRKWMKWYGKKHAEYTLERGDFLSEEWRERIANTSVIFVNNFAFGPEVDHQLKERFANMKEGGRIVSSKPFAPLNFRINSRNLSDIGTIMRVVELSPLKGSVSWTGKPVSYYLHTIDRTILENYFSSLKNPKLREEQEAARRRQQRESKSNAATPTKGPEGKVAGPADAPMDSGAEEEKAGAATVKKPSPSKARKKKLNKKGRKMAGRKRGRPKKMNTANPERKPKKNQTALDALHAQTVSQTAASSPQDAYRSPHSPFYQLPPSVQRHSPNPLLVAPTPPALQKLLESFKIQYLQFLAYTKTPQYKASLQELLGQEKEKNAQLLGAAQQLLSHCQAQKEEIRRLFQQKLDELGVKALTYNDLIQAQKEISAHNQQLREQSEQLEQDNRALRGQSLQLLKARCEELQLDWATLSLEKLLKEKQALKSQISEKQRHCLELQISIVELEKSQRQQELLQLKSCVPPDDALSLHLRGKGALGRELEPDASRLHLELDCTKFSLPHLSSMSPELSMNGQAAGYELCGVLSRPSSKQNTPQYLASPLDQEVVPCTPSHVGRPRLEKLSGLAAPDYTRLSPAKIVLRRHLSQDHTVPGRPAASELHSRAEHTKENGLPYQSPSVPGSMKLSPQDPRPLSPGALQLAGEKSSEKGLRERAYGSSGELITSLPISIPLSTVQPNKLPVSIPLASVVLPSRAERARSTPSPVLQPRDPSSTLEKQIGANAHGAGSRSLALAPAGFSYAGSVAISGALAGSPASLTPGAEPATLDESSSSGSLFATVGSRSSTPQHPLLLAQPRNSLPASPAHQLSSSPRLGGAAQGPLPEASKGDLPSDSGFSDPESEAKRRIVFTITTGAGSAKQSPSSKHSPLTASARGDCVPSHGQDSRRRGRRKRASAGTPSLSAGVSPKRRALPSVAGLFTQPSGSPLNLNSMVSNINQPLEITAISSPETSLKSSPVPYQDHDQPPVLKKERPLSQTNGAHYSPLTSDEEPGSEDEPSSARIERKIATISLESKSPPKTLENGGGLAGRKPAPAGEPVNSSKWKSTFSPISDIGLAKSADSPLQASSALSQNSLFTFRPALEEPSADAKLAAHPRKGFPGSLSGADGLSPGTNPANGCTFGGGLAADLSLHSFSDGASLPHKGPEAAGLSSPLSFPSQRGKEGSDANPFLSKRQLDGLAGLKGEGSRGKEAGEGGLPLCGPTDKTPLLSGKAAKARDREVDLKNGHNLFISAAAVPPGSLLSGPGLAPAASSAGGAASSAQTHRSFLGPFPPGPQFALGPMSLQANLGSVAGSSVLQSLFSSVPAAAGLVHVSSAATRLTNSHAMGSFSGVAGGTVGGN

binding effect / binding affinity against DOT1L (thermal stabilisation, FIG. 1): reasonable binding affinity
Structure (SMILES): CC(C)N(CCCNC(=O)Nc1ccc(C(C)(C)C)cc1)C[C@H]1O[C@@H](n2cnc3c(NCCCC(=O)NCCCOCCOCCOCCCNC(=O)CCCC[C@@H]4SC[C@@H]5NC(=O)N[C@@H]54)ncnc32)[C@H](O)[C@@H]1O [JQPROB2B]
